Test results published in US7671061B2, “Methods and compositions for treating pain” (Hydra Biosciences, Inc., priority 2005, dated 2010).
pIC50: −log10 of the molar value.

Assays:
[1] = target: T1, hTRPA1 (Homo sapiens, UniProt O75762, K186N); experiment: TRPA1 patch clamp (perforated patch, AITC-activated current); type: cell-based
T1 construct: expressed in transfected cells; host or cells: HEK293/TREx (Invitrogen), induced with tetracycline
Description: Patch clamp experiments permit the detection of currents through the TRPA1 channel in the cell line described above. To permit recording of current at a stable level and prevent the “rundown” observed by other labs, it is necessary to use the perforated patch technique, which prevents dialysis of the cytoplasm with the pipette solution. In normal whole-cell patch clamp recordings, a glass electrode is brought into contact with a single cell and a high-resistance (gigaohm) seal is established with the cell membrane. The membrane is then ruptured to achieve the whole-cell configuration, permitting control of the voltage of the cell membrane and measurement of currents flowing across the membrane using the amplifier attached to the electrode and resulting in the replacement of cytoplasm with the pipette solution. In contrast, in the perforated patch mode, an antibiotic, amphotericin, is present in the pipette solution and diffuses into contact with the cell after the seal is achieved, over the course of several minutes. The amphotericin forms ion-permeable pores in the membrane under the pipette, permitting passage of some ions but maintaining most native cytosolic components. A perfusion system permits control of the extracellular solution, including the addition of blockers and activators of the current. The current can be activated by addition of 5 μM AITC to the solution. […] In some cases, cells were grown in low density overnight on glass coverslips. Patch clamp recordings were made in the whole-cell mode with a holding potential of −40 mV. Every 5 seconds, a voltage ramp was applied from −120 to +100 mV, 400 ms in duration. Currents elicited were quantified at −80 mV and +80 mV. […] The external solution consisted of 150 mM NaCl, 4.5 mM KCl, 3 mM MgCl2, 10 mM HEPES, […], 1 mM EGTA, pH 7.4. Upon addition of AITC, TRPA1 current was induced only in TRPA1-expressing cells and not in parental HEK293 TREx cells. Removal of the AITC stimulus causes most of the current to go away. Potential blockers were tested for ability to block both inward and outward currents in the continued presence of AITC.

[2] = target: T1, hTRPA1; experiment: High throughput Ca2+ fluorescence (Fluo4) assay, AITC stimulation; type: cell-based
Method in brief: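 Tetracycline-induced HEK293/TREx cells loaded with 1 μM Fluo4/AM for 60 min at room temperature. Compound added for 2 min after a 4-frame baseline, then AITC; fluorescence followed ~3 min.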

[3] = Table 1, read-out: hTRPA1 Patch IC50
[4] = Table 1, read-out: hTRPA1 Fluo4 IC50
[5] = Table 2, inward current, read-out: hTRPA1 Patch Inwd IC50
[6] = Table 2, read-out: hTRPA1 Fluor IC50

T1 sequence (O75762 whole entry K186N): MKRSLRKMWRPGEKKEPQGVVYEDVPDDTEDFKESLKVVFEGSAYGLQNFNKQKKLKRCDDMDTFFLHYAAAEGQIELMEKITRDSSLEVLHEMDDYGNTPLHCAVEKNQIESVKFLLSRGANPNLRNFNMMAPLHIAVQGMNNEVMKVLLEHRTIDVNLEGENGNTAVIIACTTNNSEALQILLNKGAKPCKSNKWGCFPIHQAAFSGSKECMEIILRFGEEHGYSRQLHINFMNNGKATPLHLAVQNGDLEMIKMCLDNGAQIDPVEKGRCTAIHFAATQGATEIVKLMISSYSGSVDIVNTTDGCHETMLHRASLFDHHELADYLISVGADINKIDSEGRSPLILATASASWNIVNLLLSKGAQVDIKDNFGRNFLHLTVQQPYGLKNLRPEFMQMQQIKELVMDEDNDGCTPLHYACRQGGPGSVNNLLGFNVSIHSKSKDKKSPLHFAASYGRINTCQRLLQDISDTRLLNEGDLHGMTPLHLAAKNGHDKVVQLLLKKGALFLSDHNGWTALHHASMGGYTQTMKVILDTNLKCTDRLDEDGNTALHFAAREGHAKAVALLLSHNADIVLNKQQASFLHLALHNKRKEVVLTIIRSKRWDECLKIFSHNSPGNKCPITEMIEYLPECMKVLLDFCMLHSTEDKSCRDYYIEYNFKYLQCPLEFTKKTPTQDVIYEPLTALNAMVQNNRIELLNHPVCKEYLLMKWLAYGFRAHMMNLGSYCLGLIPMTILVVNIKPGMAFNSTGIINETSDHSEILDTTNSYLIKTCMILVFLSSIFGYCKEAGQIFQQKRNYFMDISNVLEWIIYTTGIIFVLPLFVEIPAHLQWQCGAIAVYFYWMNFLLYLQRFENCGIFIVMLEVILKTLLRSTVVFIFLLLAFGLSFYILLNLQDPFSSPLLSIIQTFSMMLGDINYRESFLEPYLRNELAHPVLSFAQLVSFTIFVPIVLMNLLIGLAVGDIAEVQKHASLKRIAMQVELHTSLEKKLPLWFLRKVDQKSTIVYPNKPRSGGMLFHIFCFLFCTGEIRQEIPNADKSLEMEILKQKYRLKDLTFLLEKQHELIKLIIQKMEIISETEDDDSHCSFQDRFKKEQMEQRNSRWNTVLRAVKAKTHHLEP

pIC50 [1, 3]	pIC50 [2, 4]	pIC50 [1, 5]	pIC50 [2, 6]	Structure (SMILES)	IC50 ([1]; hTRPA1 Patch IC50 (nM), Table 1) [nM]
< 5.00	≥ 5.30			COC(=O)C1=C(C)NC(=S)NC1c1ccccc1 (stereo not shown)	
≥ 5.00	≥ 5.30			CCOc1ccc(C2NC(=S)NC(C)=C2C(=O)OC)cc1 (stereo not shown)	
< 5.00	≥ 5.00			CCOC(=O)C1=C(C)NC(=S)NC1c1cccc(O)c1 (stereo not shown)	
< 5.00	< 5.00			CCOC(=O)C1=C(c2ccccc2)NC(=S)NC1c1ccc(OC)cc1 (stereo not shown)	
< 5.00	≤ 4.70			CCOC(=O)C1=C(c2ccccc2)NC(=S)NC1c1ccc(OC(C)C)cc1 (stereo not shown)	
≥ 5.30	≥ 5.30			CCOC(=O)C1=C(c2ccccc2)NC(=S)NC1c1cccc(OC)c1 (stereo not shown)	
≥ 6.00	≥ 5.30			CCOC(=O)C1=C(C)NC(=S)NC1c1cccc(OCC)c1 (stereo not shown)	
< 5.00	< 5.00			CCOC(=O)C1=C(c2ccccc2)NC(=S)NC1c1cc(C)ccc1C (stereo not shown)	
< 5.00	< 5.00			CCOC(=O)C1=C(c2ccccc2)NC(=S)NC1c1ccc(Cl)c(Cl)c1 (stereo not shown)	
< 5.00	< 5.00			COC(=O)C1=C(c2ccccc2)NC(=S)NC1c1ccc(F)cc1 (stereo not shown)	
≥ 5.30	≥ 5.30			COC(=O)C1=C(c2ccccc2)NC(=S)NC1c1ccccc1 (stereo not shown)	
< 5.00	≥ 5.30			CCCC1=C(C(=O)OCC)C(c2ccccc2Cl)NC(=O)N1 (stereo not shown)	
< 5.00	≥ 5.30			COC(=O)C1=C(C)N(C)C(=O)NC1c1cccc(Br)c1 (stereo not shown)	
≥ 6.00	≥ 5.30			COC(=O)C1=C(C)N(C)C(=O)NC1c1ccc(F)c(F)c1 (stereo not shown)	
≥ 5.30	≥ 5.30			CCOC(=O)C1=C(C)NC(=S)NC1c1ccccc1C (stereo not shown)	
≥ 6.00	≥ 5.30			COC(=O)C1=C(C)NC(=S)NC1c1ccc(OC)c(Br)c1 (stereo not shown)	
≥ 6.00	≥ 5.30			COC(=O)C1=C(C)NC(=S)NC1c1c(Cl)cccc1Cl (stereo not shown)	
≥ 5.30	≥ 5.30			COC(=O)C1=C(C)NC(=S)NC1c1cc(C)ccc1C (stereo not shown)	
≥ 6.00	≥ 5.30			COC(=O)C1=C(C)NC(=S)NC1c1cccc(Cl)c1Cl (stereo not shown)	
≥ 6.00	≥ 5.30			C=CCOc1cccc(C2NC(=S)NC(C)=C2C(=O)OCC)c1 (stereo not shown)	
≥ 5.30	≥ 5.30			COC(=O)C1=C(C)N(C)C(=O)NC1c1cc(O)ccc1Br (stereo not shown)	
< 5.00	≥ 5.30			COC(=O)C1=C(C)N(C)C(=O)NC1c1ccc(O)c(Cl)c1 (stereo not shown)	
≥ 6.30	≥ 5.30			CC1=C(C(=O)OC(C)C)C(c2ccc(C)c(Br)c2)NC(=O)N1 (stereo not shown)	
		< 5.00	≤ 4.70	CN(C)c1ccc(NC(=O)Cn2cnc3c2c(=O)n(C)c(=O)n3C)cc1 [Compound 201]	
		< 5.00	< 5.00	Cn1c(=O)c2c(ncn2CC(=O)NC(c2ccccc2)c2ccccc2)n(C)c1=O [Compound 203]	

pIC50 [1, 3]	pIC50 [2, 4]	pIC50 [1, 5]	pIC50 [2, 6]	Structure (SMILES)	IC50 ([1]; hTRPA1 Patch IC50 (nM), Table 1) [nM]
		< 5.00	≥ 5.00	Cc1cc(Br)ccc1NC(=O)Cn1cnc2c1c(=O)n(C)c(=O)n2C [Compound 204]	
		≥ 5.00	< 5.00	Cn1c(=O)c2c(ncn2CC(=O)NCc2cccnc2)n(C)c1=O [Compound 206]	
		≥ 5.00	< 5.00	COc1ccc(NC(=O)Cn2cnc3c2c(=O)n(C)c(=O)n3C)cc1 [Compound 207]	
		< 5.00	≥ 5.00	CCOc1ccc(NC(=O)Cn2cnc3c2c(=O)n(C)c(=O)n3C)cc1 [Compound 208]	
		< 5.00	≥ 5.00	Cn1c(=O)c2c(ncn2CC(=O)Nc2ccc(F)cc2)n(C)c1=O [Compound 209]	
		≥ 5.00	≤ 4.70	Cn1c(=O)c2c(ncn2CC(=O)Nc2ccc([N+](=O)[O-])cc2)n(C)c1=O [Compound 210]	
		< 5.00	< 5.00	Cn1c(=O)c2c(ncn2CC(=O)Nc2ccncc2)n(C)c1=O [Compound 211]	
		< 5.00	< 5.00	Cn1c(=O)c2c(ncn2CC(=O)Nc2ccc(C(N)=O)cc2)n(C)c1=O [Compound 212]	
		< 5.00	≥ 5.00	Cn1c(=O)c2c(ncn2CC(=O)Nc2ccc3ccccc3c2)n(C)c1=O [Compound 213]	
		≥ 5.00	≥ 5.00	Cn1c(=O)c2c(ncn2CC(=O)Nc2ccc(C#N)cc2)n(C)c1=O [Compound 214]	
		≥ 5.30	≥ 6.00	Cn1c(=O)c2c(ncn2CC(=O)Nc2ccc(OCc3ccccc3)cc2)n(C)c1=O [Compound 224]	
		< 5.00	< 5.00	Cn1c(=O)c2c(ncn2CC(=O)Nc2nccs2)n(C)c1=O [Compound 225]	
		< 5.00	< 5.00	Cn1c(=O)c2c(ncn2CC(=O)Nc2ccc(S(N)(=O)=O)cc2)n(C)c1=O [Compound 228]	
		≥ 6.00	≥ 5.30	COc1cc([N+](=O)[O-])ccc1NC(=O)Cn1cnc2c1c(=O)n(C)c(=O)n2C [Compound 229]	
		≥ 5.00	≥ 5.00	Cn1c(=O)c2c(ncn2CC(=O)Nc2nc(-c3ccccc3)cs2)n(C)c1=O [Compound 230]	
		≥ 5.30	≥ 5.30	Cc1ccc2nc(NC(=O)Cn3cnc4c3c(=O)n(C)c(=O)n4C)sc2c1 [Compound 233]	
		≥ 5.30		Cn1c(=O)c2c(ncn2CC(=O)Nc2ccc(C(C)(C)O)cc2)n(C)c1=O [Compound 402, 2-(1,3-dimethyl-2,6-dioxo-1,2,3,6-tetrahydropurin-7-yl)-N-(4-(2-hydroxypropan-2-yl)phenyl)acetamide]	
		< 5.00		COc1ccccc1CCNC(=O)Cn1cnc2c1c(=O)n(C)c(=O)n2C [Compound 403, N-(2-methoxyphenethyl)-2-(1,3-dimethyl-2,6-dioxo-1,2,3,6-tetrahydropurin-7-yl)acetamide]	
		≥ 6.00		Cn1c(=O)c2c(ncn2CC(=O)NCCc2ccccc2F)n(C)c1=O [Compound 404, N-(2-fluorophenethyl)-2-(1,3-dimethyl-2,6-dioxo-1,2,3,6-tetrahydropurin-7-yl)acetamide]	
		≥ 5.00		Cn1c(=O)c2c(ncn2CC(=O)NCCc2ccccc2Cl)n(C)c1=O [Compound 405, N-(2-chlorophenethyl)-2-(1,3-dimethyl-2,6-dioxo-1,2,3,6-tetrahydropurin-7-yl)acetamide]	
		≥ 5.00		Cc1ccccc1CCNC(=O)Cn1cnc2c1c(=O)n(C)c(=O)n2C [Compound 406, N-(2-methylphenethyl)-2-(1,3-dimethyl-2,6-dioxo-1,2,3,6-tetrahydropurin-7-yl)acetamide]	
		≥ 5.00		Cc1cccc(CCNC(=O)Cn2cnc3c2c(=O)n(C)c(=O)n3C)c1 [Compound 407, 2-(1,3-Dimethyl-2,6-dioxo-1,2,3,6-tetrahydropurin-7-yl)-N-[2-(3-methyl-phenyl)-ethyl]-acetamide]	
		≥ 5.30		COc1cccc(CCNC(=O)Cn2cnc3c2c(=O)n(C)c(=O)n3C)c1 [Compound 408, 2-(1,3-Dimethyl-2,6-dioxo-1,2,3,6-tetrahydropurin-7-yl)-N-[2-(3-methoxy-phenyl)-ethyl]acetamide]	
		≥ 5.00		Cn1c(=O)c2c(ncn2CC(=O)NCCc2ccc(C#N)cc2)n(C)c1=O [Compound 409, N-[2-(4-Cyanophenyl)-ethyl]-2-(1,3-dimethyl-2,6-dioxo-1,2,3,6-tetrahydro-purin-7-yl)-acetamide]	

Structure (SMILES)	pIC50 [1, 3]	pIC50 [2, 4]	pIC50 [1, 5]	pIC50 [2, 6]	IC50 ([1]; hTRPA1 Patch IC50 (nM), Table 1) [nM]
CCOC(=O)C1=C(C)NC(=S)NC1c1cccc(OC)c1 (stereo not shown)		≥ 5.30			≤ 10000
CCOC(=O)C1=C(c2ccccc2)NC(=S)NC1c1cc(O)ccc1Br (stereo not shown) [drawing 264]	≥ 6.00				
CCOC(=O)C1=C(c2ccccc2)NC(=S)NC1c1cc(O)ccc1Br (stereo not shown) [drawing 265]	≥ 6.30				
